Results reported in the SangsterLogP compilation.

Experiment: method code SF-AS, from DOI: 10.1111/j.2042-7158.1992.tb05470.x, PMID: 1357140
Conditions: pH 7.4

- logD: 0.96
SMILES: CC(C)NC(=S)NS(=O)(=O)c1cnccc1NC1CCCCCC1
